Laboratory results as given in patent publication US20120077705A1, “Methods for Identifying Autophagy Inducing Compounds” (President and Fellows of Harvard College, priority 2007, published 2012).
Non-standard residues stand in square brackets, D forms with d. Residues, ends and D or L forms follow the SMILES beside them. Nle = CCCC[C@H](N)C(=O)O

Key:
Format in all cases: cell-based
FYVE-RFP = assay: High-content analysis of FYVE-RFP fluorescence (PI(3)P level) in H4-FYVE cell line; conditions: H4-FYVE cells
Description: Class III PI(3)K Vps34 is a multifunctional protein. On the one hand, it catalyzes the phosphorylation of PI to generate PI(3)P and is of key importance in the endocytic and autophagosome membrane transport processes. At the same time, a compound formed from Vps34/beclin1 is involved in the regulation of autophagy initiation signaling. Therefore, while the autophagy process is taking place, the level of PtdIns(3)P should not be expected to decrease to a significant extent. A FYVE domain is a protein structure domain composed of approximately 70 amino acid residues and containing a zinc finger protein structure; it can bind specifically with PI(3)P. Generally, PI(3)P recruits proteins containing a FYVE domain in order to bind to the membrane of cellular organelles, and participate in protein trafficking and similar processes.
H4 cells were transfected with the fusion protein FYVP-red fluorescent protein (FYVE-RFP). After transfection, the cells were screened in order to obtain a suitable H4-FYVE cell line to be used as a screening platform to perform high-volume screening of compounds, which thereby indirectly reflected the effect of the compound on autophagy. Compounds which reduced FYVE-RFP fluorescence intensity were eliminated. In this experiment, change in the intensity, fluorescence and distribution of the protein marker FYVE-RFP recruited by PI(3)P before and after treatment with the potential autophagy inducing compound was assayed by high-content microscopic analysis.
DMSO was used to dilute, dissolve, and prepare a compound at different concentrations with each concentration repeated three times. A 96-well plate was inoculated with H4-FYVE cells at an appropriate density and treated with the compound for 2, 4, and 8 hours, respectively. […] If a compound affected FYVE expression or distribution, then this would be embodied precisely in the image and in the size and intensity of fluorescent spots and other numerical values.

GFP-polyQ-HA = assay: Degradation of expanded polyglutamine (GFP-polyQ-HA) in transfected H4 cells, anti-HA blot; conditions: H4 cells transfected with GFP-polyQ-HA, 24 hours, screening concentration and dilutions 1:2.5, 1:5, 1:10, FIG. 2
Description: Large-scale accumulation of misfolded protein is a prominent feature of many neurodegenerative diseases. For example, the pathogenic mechanism of Huntington's disease is that a large amount of polyglutamine (polyQ) protein accumulates in the neurons and cannot be cleared away. Tests of polyQ elimination and degradation were used in this experiment to further determine the ability if the tested compounds to induce autophagy.
The compounds selected through screening were dissolved in DMSO and diluted in a stepwise manner in complete culture medium.

LC3 II = assay: Western blot of LC3 II in H4-LC cells
Description: The autophagosome marker LC3 used in the compound-screening platform was subjected to the foregoing processing in the cytosol. Generally when the new LC3 synthesized within the cell was processed, it became cytosolic soluble LC3 I with molecular weight 18 Kd. […] The quantity of LC3 II content reflects to a certain degree the autophagic activity of a cell. Therefore, by assaying the content of LC3 II in the cell by means of the Western blot method, it is possible to further reflect the effect of the compound on autophagy.
H4-LC cells at an appropriate density were inoculated onto a 6-well plate, which was treated with a compound for 4 hours, after which the cells were collected and lysed. The protein fraction was harvested and SDS-PAGE was performed. Following electrophoresis separation the proteins were transferred to a membrane, and immunoblot analysis was performed. The cytoskeleton protein, actin, was used as an internal control.

Structure (SMILES) | Relative fluorescent intensity of FYVE-RFP (%) (FYVE-RFP; 2 h) | Relative fluorescent intensity of FYVE-RFP (%) (FYVE-RFP; 4 h) | Relative fluorescent intensity of FYVE-RFP (%) (FYVE-RFP; 8 h) | polyQ degradation (GFP-polyQ-HA) | Increase of endogenous LC3 II / LC3 II/LC3 I percentage (LC3 II)
CN(C)C[C@H](O)Cn1c2ccc(Br)cc2c2cc(Br)ccc21 (racemic) [Wiskostatin] | 267.90 ± 6.16 | 240.08 ± 4.26 | 131.93 ± 11.05 | – | –
CN(CCc1ccc(Cl)c(Cl)c1)CC(O)COc1ccc(NS(C)(=O)=O)cc1 (stereo not drawn) [AM 92016] | 68.06 ± 1.20 | 71.97 ± 15.67 | 66.35 ± 17.66 | – | –
CCCC[C@@H](C=O)NC(=O)[C@H](CC(C)C)NC(=O)[C@H](CC(C)C)NC(C)=O [Ac-Leu-Leu-Nle-CHO] (Ac-Leu-Leu-[Nle]-aldehyde) | 72.86 ± 10.18 | 84.85 ± 2.83 | 88.42 ± 6.29 | – | –
COC(=O)C1=C(C)NC(C)=C([N+](=O)[O-])C1c1ccccc1C(F)(F)F (stereo not drawn) [Bay K-8644] | 110.18 ± 25.18 | 57.79 ± 3.76 | 79.70 ± 7.28 | – | –
CCCNC(=O)[C@H]1O[C@@H]1C(=O)N[C@H](C(=O)N1CCC[C@H]1C(=O)OC)[C@@H](C)CC [CA-074-Me] | 65.94 ± 12.73 | 79.82 ± 4.66 | 86.43 ± 4.15 | – | –
O=C(/C=C/c1ccc(O)c(O)c1)OCCc1ccccc1 [CAPE] | 86.89 ± 20.98 | 71.17 ± 18.70 | 69.14 ± 4.32 | – | –
CN1CCN(C2=Nc3cc(Cl)ccc3Nc3ccccc32)CC1 [Clozapine] | 64.04 ± 2.94 | 74.79 ± 13.43 | 78.38 ± 1.35 | – | –
CC1=C2C[C@H]3[C@@H](CC=C4C[C@@H](O)CC[C@@]43C)[C@@H]2CC[C@]12O[C@@H]1C[C@H](C)CN[C@H]1[C@H]2C [Cyclopamine] | 108.75 ± 12.44 | 75.21 ± 1.18 | 96.38 ± 5.12 | – | –
COC(=O)c1c(C)[nH]c(C)c1C(=O)c1ccccc1Cc1ccccc1 [FPL-64176] | 99.43 ± 9.62 | 78.17 ± 1.90 | 87.62 ± 2.42 | – | –
O=C1NCN(c2ccccc2)C12CCN(CCCC(c1ccc(F)cc1)c1ccc(F)cc1)CC2 [Fluspirilene] | – | – | – | increased polyQ degradation | –
COC(=O)[C@@]1(O)C[C@H]2O[C@]1(C)n1c3ccccc3c3c4c(c5c6ccccc6n2c5c31)C(=O)NC4 [K252A] | 76.86 ± 6.51 | 65.58 ± 9.36 | 70.33 ± 5.89 | – | –
CN(C)C(=O)C(CCN1CCC(O)(c2ccc(Cl)cc2)CC1)(c1ccccc1)c1ccccc1.Cl [Loperamide] | – | – | – | – | increase of endogenous LC3 II
CC[C@H](C)[C@H](NS(=O)(=O)c1ccc2ccccc2c1)C(=O)N[C@H](C=O)Cc1c[nH]c2ccccc12 [NapSul-Ile-Trp-CHO] | 89.37 ± 3.52 | 64.10 ± 11.47 | 62.34 ± 8.21 | – | –
CO[C@@H]1C[C@@H](C[C@H]2CC[C@H](C)[C@H]([C@@H](C)C(=O)O)O2)O[C@]2(O[C@](C)([C@H]3CC[C@@](C)([C@@H]4O[C@@H]([C@H]5O[C@@](O)(CO)[C@H](C)C[C@@H]5C)C[C@@H]4C)O3)C[C@H]2C)[C@@H]1C [Nigericin] | 148.43 ± 5.17 | 145.40 ± 8.39 | 140.54 ± 18.21 | – | –
CC(C)(O)[C@H]1O[C@H]2CC[C@@]3(C)[C@@](O)(CC[C@H]4Cc5c([nH]c6ccccc56)[C@@]43C)C2=CC1=O [Paxilline] | 100.56 ± 0.58 | 52.37 ± 1.65 | 56.82 ± 4.44 | – | –
CCCNCC(O)COc1ccccc1C(=O)CCc1ccccc1 (stereo not drawn) [Propafenone] | 114.69 ± 8.90 | 78.75 ± 18.93 | 62.87 ± 3.38 | – | –
C=C[C@H]1C[N@@]2CC[C@H]1C[C@H]2[C@H](O)c1ccnc2ccc(OC)cc12 [Quinine] | 70.35 ± 10.23 | 78.03 ± 6.33 | 60.70 ± 6.59 | – | –
CO[C@H]1C[C@@H]2CC[C@@H](C)[C@@](O)(O2)C(=O)C(=O)N2CCCC[C@H]2C(=O)O[C@H]([C@H](C)C[C@@H]2CC[C@@H](O)[C@H](OC)C2)CC(=O)[C@H](C)/C=C(\C)[C@@H](O)[C@@H](OC)C(=O)[C@H](C)C[C@H](C)/C=C/C=C/C=C/1C [Rapamycin] | – | 131.41 ± 26.64 | – | – | –
N#Cc1cc2c(OCC(O)CN3CCN(C(c4ccccc4)c4ccccc4)CC3)cccc2[nH]1 (stereo not drawn) [SDZ-201106] | 65.87 ± 4.72 | 59.79 ± 2.38 | 72.40 ± 20.27 | – | –
CCN(CC)CCCCCCCCOC(=O)c1cc(OC)c(OC)c(OC)c1 [TMB-8] | 89.59 ± 4.79 | 74.72 ± 13.74 | 78.64 ± 10.26 | – | –
CC/C(=C(\c1ccccc1)c1ccc(OCCN(C)C)cc1)c1ccccc1 [Tamoxifen] | 77.66 ± 4.43 | 71.55 ± 0.73 | 85.37 ± 7.59 | – | –
